In ChEMBL document CHEMBL1201862, “PubChem BioAssay data set” (2004):
Activity calls are given as the source filed them. Rule as the data show it, for most assays here: actives have a measured EC50 and inactives only a lower limit.

Assays:
[1] = target: 26S proteasome non-ATPase regulatory subunit 14 (Homo sapiens, UniProt O00487); experiment: inhibition of proteasome subunit RPN11 – biochemical, fluorescence polarization, uHTS hits, confirmation (AID 602368); type: functional
[2] = target: 72 kDa type IV collagenase (Homo sapiens, UniProt P08253); experiment: Dose Response validation of uHTS RPN11 inhibitor hits using a MMP-2 Fluorescence assay.; type: functional
Prothrombin = Prothrombin (Bos taurus, UniProt P00735); experiment: thrombin inhibition, dose response, biochemical, fluorescence polarization, uHTS hits (AID 602369); type: functional
[3] = target: Photoreceptor-specific nuclear receptor (Homo sapiens, UniProt Q9Y5X4); type: functional, cell-based;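 also: CHO-S cells with Gal4-NCOR and VP16-NR2E3 two-hybrid luciferase reporter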
[4] = A Cell Based Secondary Assay To Explore Cytotoxicity of Compounds that Sensitize Mycobacterium Tuberculosis to Beta-Lactam Antibiotics.; type: functional
Melanocortin receptor 4 = Melanocortin receptor 4 (Homo sapiens, UniProt P32245); type: functional, cell-based;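 also: Cell-based assay with luminescence read-out, confirmatory dose-response testing for agonist activity of biased ligands at MC4R; human U2OS cells with tagged receptor and beta-arrestin; potency of agonists that increase receptor coupling to beta-arrestin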
BJ [5] = experiment: cytotoxicity toward BJ-TERT-LT-ST fibroblasts, dose response, cell-based, RAS-independent, luminescence (AID 1935); type: functional; details: Homo sapiens;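 also: BJ fibroblasts immortalized with TERT plus LT and ST oncogenes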
[6] = target: T1, RNA-binding protein pos-1 (Caenorhabditis elegans, UniProt G5EF15); experiment: inhibitors of POS-1/mex-3 RNA binding, dose response, biochemical, fluorescence polarization (AID 1964);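 also: purified POS-1 fused to maltose binding protein made in E. coli; potency of compounds blocking POS-1 binding to fluorescent RNA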
T1 sequence (G5EF15 whole entry): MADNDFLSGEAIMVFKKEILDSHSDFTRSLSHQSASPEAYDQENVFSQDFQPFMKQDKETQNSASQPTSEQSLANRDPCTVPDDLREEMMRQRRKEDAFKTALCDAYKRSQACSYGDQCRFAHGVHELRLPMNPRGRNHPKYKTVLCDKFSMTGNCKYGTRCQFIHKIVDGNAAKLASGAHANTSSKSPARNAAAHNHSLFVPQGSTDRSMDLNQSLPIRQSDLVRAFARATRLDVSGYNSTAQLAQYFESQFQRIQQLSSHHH

BJ [7] = experiment: cytotoxicity toward BJ-TERT fibroblasts, dose response, cell-based, RAS-independent, luminescence (AID 1933); type: functional; details: Homo sapiens
BJ [8] = experiment: cells; type: functional, cell-based; details: Homo sapiens
[9] = target: T2, Zinc finger protein mex-5 (Caenorhabditis elegans, UniProt Q9XUB2); experiment: MEX-5/TCR-2 RNA interaction inhibitors, dose response, biochemical, C. elegans, fluorescence polarization (AID 1960)
T2 sequence (Q9XUB2 whole entry): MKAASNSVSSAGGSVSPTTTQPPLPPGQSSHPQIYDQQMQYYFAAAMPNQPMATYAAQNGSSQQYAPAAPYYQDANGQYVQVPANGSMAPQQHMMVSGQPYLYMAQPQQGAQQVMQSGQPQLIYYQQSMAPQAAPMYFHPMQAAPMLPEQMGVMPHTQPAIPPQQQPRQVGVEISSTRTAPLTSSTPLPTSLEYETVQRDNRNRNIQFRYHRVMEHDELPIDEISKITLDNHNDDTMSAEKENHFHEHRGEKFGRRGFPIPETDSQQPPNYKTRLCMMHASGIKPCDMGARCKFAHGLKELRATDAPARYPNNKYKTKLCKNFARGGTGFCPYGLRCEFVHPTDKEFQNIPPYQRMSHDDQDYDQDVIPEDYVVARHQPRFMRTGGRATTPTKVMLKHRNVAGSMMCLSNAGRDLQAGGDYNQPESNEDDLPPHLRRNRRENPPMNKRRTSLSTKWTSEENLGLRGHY

[10] = cytotoxicity toward DRD oncogenic fibroblasts, dose response, cell-based, non-viral oncogenic, luminescence (AID 1934); type: functional; details: Homo sapiens
BJ [11] = experiment: cytotoxicity toward Ras-transformed BJeLR fibroblasts, dose response, cell-based, alamar blue fluorescence, cherrypicked samples (AID 2631); type: functional; details: Homo sapiens;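 also: confirmatory dose-response assay in RAS-dependent BJ fibroblasts engineered with TERT, LT and ST, with cytotoxicity read by fluorescence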
Protein Wnt-3a = Protein Wnt-3a (Mus musculus, UniProt P27467); experiment: Wnt3a-driven reporter signaling inhibition, dose response, selectivity assay for Gli-SUFU antagonist project, Wnt-LIGHT cells, luminescence (AID 651570); type: functional; details: read-out: IC50_Mean;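 also: Wnt-LIGHT reporter cells stimulated with conditioned medium from Wnt3a-producing cells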
Protein skinhead-1 = target: T3, Protein skinhead-1 (Caenorhabditis elegans, UniProt P34707); type: functional
T3 sequence (P34707 whole entry): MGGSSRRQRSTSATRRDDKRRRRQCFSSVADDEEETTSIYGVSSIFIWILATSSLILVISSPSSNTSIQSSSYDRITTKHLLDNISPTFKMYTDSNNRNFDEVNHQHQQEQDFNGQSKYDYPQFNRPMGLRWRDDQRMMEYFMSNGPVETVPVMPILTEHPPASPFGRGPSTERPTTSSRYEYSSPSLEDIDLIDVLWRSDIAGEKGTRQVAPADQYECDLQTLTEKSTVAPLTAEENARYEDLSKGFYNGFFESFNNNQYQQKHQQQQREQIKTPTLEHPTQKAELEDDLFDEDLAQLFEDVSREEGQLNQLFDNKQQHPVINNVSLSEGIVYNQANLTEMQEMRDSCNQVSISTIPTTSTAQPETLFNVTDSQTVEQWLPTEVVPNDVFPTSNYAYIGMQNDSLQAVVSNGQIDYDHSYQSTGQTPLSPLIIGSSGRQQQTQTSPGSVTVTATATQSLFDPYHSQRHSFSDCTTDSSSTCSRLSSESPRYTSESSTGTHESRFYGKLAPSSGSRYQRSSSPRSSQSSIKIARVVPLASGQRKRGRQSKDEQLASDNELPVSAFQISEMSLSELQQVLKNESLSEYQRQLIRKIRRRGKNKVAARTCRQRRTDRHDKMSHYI

[12] = NIH-3T3 fibroblast cytotoxicity, dose response, cytotoxicity control, cell-based, fluorescence, Alamar Blue, secondary assay (AID 2327); type: functional;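 also: NIH-3T3 mouse fibroblasts cultured with fluconazole at 8 µg/mL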
[13] = target: T4, Serine/threonine-protein phosphatase (Candida dubliniensis (strain CD36 / CBS 7987 / NCPF 3949 / NRRLY-17841) (Yeast), UniProt B9W6M3); experiment: calcineurin pathway inhibitors in yeast reporter, dose response, S. cerevisiae, CDRE-lacZ, luminescence, secondary (AID 2388); type: functional, cell-based;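 also: yeast reporter cells carrying a calcineurin-responsive lacZ construct stimulated with calcium chloride; luminescent beta-galactosidase reporter signal in whole cells rather than isolated phosphatase activity; potency for inhibition where a drop in reporter signal means calcineurin blockade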
T4 sequence (B9W6M3 whole entry): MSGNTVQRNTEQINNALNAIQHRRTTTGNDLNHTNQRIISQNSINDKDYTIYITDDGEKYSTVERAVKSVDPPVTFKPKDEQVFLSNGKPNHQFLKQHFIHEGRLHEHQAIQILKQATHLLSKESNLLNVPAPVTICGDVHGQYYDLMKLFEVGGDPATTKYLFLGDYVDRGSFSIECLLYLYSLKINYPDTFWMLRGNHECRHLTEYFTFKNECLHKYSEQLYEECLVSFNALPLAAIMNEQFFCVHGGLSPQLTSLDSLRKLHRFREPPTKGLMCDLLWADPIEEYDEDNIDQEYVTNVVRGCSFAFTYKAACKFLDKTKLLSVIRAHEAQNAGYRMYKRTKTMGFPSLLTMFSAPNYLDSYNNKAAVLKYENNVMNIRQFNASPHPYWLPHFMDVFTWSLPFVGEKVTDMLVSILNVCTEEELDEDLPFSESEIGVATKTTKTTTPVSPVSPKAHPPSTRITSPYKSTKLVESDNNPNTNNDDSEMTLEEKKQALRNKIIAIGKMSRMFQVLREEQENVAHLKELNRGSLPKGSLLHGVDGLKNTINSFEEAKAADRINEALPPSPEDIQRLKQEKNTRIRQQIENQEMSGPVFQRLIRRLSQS

[14] = microbe, parasite or virus in culture; type: functional; details: Mycobacterium tuberculosis
Streptokinase A = target: T5, Streptokinase A (Streptococcus pyogenes serotype M1, UniProt P10520); experiment: S. pyogenes streptokinase expression inhibitors, potency, dose response, plasminogen activation absorbance, OD405 (AID 1914); type: functional, Streptococcus pyogenes M1 GAS;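 also: secreted streptokinase activity via plasminogen activation per viability signal from cell pellet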
T5 sequence (P10520 whole entry): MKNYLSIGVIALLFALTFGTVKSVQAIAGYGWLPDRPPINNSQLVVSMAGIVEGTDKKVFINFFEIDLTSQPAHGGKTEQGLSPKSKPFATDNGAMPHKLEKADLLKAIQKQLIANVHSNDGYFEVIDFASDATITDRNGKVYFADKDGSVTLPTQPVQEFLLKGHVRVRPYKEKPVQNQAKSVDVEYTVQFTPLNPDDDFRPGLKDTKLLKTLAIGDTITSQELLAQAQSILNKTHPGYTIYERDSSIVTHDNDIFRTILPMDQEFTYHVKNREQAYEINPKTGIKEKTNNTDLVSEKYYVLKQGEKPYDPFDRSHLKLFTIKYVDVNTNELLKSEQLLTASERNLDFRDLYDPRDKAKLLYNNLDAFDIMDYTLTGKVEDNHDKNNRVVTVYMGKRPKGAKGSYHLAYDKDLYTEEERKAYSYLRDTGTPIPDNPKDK

[15] = target: ATP-dependent molecular chaperone HSP82 (Candida albicans (strain WO-1) (Yeast), UniProt C4YTQ8); experiment: loss of DOC-induced GRE-beta-galactosidase reporter signal, dose response, Hsp90 inhibitor project, S. cerevisiae, luminescence (AID 2400); type: functional, cell-based;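 also: beta-galactosidase luminescence from glucocorticoid response element reporter as proxy for Hsp90 function; inhibitor potency where signal loss means Hsp90 inhibition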
[16] = tested on: Streptococcus sp. 'group A'; experiment: growth inhibition of control SK(-) GAS strain, dose response, counter-screen for streptokinase expression inhibitor project, luminescence, kanamycin, BacTiterGlo, confirmation (AID 1900); type: functional, organism-based
[17] = C. albicans growth with fluconazole, confirmation, fluorescence, retest (AID 2467); type: functional, cell-based
Streptococcus = experiment: Group A Streptococcus viability loss, dose response, counter-screen for streptokinase expression inhibitor project, luminescence, BacTiterGlo (AID 1915); type: functional, organism-based;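 also: potency for reduction of bacterial viability or growth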
[18] = Luminescence Cell-Based Dose Retest to Confirm Inhibitors of Cancer Stem Cells. [Related pubchem assays (depositor defined):AID2717, AID2721]; type: functional; details: Homo sapiens
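For AC50 in this document: cells exposed to compound for roughly 70 hours or longer before luminescence read.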

Melanocortin receptor 4, sequence (P32245 whole entry): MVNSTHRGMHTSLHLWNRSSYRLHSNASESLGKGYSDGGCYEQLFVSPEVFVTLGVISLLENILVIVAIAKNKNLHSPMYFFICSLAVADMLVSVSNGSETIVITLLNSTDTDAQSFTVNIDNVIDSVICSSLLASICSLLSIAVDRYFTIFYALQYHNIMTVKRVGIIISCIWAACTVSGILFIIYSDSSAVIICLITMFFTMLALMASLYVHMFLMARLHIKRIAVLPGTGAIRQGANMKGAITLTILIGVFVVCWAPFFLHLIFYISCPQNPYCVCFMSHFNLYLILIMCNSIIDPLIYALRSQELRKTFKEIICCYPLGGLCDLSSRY
Protein Wnt-3a, sequence (P27467 whole entry): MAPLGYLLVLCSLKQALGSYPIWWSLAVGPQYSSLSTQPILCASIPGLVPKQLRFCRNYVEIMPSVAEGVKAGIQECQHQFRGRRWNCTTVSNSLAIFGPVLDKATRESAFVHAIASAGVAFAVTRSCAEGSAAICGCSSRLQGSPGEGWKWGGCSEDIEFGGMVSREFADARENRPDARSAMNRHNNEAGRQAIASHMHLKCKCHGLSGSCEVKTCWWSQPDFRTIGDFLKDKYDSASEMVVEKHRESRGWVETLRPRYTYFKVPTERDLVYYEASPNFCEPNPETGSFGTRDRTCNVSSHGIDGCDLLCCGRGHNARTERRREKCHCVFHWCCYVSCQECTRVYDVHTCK
72 kDa type IV collagenase, sequence (P08253 whole entry): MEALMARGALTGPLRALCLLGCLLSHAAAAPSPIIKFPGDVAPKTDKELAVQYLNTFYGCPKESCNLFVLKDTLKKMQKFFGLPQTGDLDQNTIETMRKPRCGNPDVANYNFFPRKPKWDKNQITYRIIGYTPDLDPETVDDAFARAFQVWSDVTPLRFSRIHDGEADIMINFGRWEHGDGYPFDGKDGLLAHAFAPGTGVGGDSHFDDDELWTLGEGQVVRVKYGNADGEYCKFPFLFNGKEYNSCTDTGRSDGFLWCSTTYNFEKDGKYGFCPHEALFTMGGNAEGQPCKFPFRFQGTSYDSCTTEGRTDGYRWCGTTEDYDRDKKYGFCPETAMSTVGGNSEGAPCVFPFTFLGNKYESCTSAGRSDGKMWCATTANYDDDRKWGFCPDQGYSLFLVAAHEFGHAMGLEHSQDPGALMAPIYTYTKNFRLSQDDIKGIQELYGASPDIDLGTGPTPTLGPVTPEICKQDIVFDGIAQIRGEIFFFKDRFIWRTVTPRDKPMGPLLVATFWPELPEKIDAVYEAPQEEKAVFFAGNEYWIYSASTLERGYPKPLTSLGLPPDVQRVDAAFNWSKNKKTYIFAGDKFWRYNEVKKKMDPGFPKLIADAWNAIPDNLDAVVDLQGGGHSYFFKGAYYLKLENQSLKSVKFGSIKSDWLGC
Photoreceptor-specific nuclear receptor, sequence (Q9Y5X4 whole entry, the tested form may be a part): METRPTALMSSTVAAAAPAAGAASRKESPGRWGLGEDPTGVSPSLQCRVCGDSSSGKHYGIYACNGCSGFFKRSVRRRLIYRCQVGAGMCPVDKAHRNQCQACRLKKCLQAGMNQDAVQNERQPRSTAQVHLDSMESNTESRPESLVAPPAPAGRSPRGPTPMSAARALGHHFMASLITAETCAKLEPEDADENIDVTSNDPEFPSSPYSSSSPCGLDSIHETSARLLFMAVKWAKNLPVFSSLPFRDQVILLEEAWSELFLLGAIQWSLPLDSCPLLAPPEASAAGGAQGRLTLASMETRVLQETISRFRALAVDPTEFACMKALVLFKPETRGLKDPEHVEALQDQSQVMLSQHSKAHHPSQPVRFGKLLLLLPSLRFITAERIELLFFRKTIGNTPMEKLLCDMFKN
ATP-dependent molecular chaperone HSP82, sequence (C4YTQ8 whole entry): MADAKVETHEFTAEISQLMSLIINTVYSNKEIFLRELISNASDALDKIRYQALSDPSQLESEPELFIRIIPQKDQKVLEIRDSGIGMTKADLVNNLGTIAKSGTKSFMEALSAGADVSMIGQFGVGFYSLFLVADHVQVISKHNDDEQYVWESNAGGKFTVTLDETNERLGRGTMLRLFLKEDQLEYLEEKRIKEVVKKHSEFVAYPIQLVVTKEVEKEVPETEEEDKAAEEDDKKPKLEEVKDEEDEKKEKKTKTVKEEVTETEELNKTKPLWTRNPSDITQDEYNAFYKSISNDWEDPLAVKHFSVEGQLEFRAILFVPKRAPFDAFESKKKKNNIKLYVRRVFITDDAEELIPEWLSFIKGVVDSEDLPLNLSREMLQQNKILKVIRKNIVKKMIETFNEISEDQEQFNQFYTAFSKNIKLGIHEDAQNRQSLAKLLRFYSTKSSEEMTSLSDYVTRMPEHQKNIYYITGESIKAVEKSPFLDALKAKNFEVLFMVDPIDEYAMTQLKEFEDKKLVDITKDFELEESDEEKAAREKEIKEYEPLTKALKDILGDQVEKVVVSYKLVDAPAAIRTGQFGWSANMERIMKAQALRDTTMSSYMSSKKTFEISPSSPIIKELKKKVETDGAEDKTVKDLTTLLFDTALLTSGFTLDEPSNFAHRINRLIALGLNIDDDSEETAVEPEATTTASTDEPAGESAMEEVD
26S proteasome non-ATPase regulatory subunit 14, sequence (O00487 whole entry): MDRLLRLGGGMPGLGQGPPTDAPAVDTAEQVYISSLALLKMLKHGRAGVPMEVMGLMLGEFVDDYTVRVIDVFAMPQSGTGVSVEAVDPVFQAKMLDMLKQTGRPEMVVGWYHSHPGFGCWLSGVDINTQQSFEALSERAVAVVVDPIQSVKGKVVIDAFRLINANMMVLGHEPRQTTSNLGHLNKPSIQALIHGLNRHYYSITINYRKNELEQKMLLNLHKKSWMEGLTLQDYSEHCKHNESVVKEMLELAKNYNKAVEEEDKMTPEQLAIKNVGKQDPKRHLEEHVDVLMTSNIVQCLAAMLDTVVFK

For `Cc1ccc(NC2=NC(=O)/C(=C/c3cccs3)S2)cc1C`, the IC50 [1] was 25.9 µM (active), the IC50 [2] was > 100 µM (inactive) and the IC50 (Prothrombin) was 37.8 µM (active).

With `COC(CNC(=O)CSCc1nc(-c2ccc(SC)cc2)oc1C)OC` the IC50 [3] was 2.23 µM (active).

For `Clc1ccc(/C=N/NC2=Nc3cccc4cccc2c34)cc1`, the CC50 [4] was 21.4 µM (active) and the EC50 (Melanocortin receptor 4) was > 89.1 µM (inactive).

With `COc1ccc(N2C(=O)/C(=C/c3ccc(C)o3)C(=O)NC2=S)cc1` the EC50 (BJ [5]) was > 75 µM (inconclusive), the EC50 [6] was > 300 µM (not active) and the EC50 (BJ [7]) was > 150 µM (not active). For the same compound, the EC50 (BJ [8]) was 17 µM (active), the EC50 [9] was > 300 µM (not active) and the EC50 [10] was 15.9 µM (active). The EC50 (BJ [11]) was > 133 µM (inactive).

For `Brc1ccc(-c2cn3c([n+]2-c2ccccc2)SCC3)cc1`, the IC50 (Protein Wnt-3a) was 17.2 µM (active).

With `CC(=O)Nc1cccc(OCC(=O)/C=C2\N(C)c3ccccc3C2(C)C)c1` the IC50 (Protein Wnt-3a) was 50 µM (inactive) and the IC50 (Protein skinhead-1) was > 100 µM (inactive).

In the case of `O=C(Nc1nc2ccc(SC(F)F)cc2s1)c1ccc(NS(=O)(=O)c2ccc(F)c(F)c2)cc1`, the EC50 [12] is reported as 92.6 µM (active), the EC50 [13] is reported as > 180 µM (inactive) and the CC50 [14] is reported as 20.1 µM (active). For the same compound, the EC50 (Streptokinase A) was > 50 µM (not active), the EC50 (Melanocortin receptor 4) was > 89.2 µM (inactive) and the EC50 [15] was > 150 µM (inactive). For the same compound, the EC50 [16] was 2.68 µM (active), the EC50 [17] was 2.18 µM (active) and the EC50 (Streptococcus) was 2.79 µM (active). For the same compound, the AC50 [18] was 2.45 µM (active).
